Target: T1, GSK3β (Homo sapiens, UniProt P49841)
T1 construct: gene GSK3B
Assay: BLI with immobilised biotinylated recombinant GSK-3β; supported by mobility shift kinase assay (IC50 […]), Lineweaver-Burk, CETSA, DARTS
Format: binding

T1 sequence (P49841 whole entry): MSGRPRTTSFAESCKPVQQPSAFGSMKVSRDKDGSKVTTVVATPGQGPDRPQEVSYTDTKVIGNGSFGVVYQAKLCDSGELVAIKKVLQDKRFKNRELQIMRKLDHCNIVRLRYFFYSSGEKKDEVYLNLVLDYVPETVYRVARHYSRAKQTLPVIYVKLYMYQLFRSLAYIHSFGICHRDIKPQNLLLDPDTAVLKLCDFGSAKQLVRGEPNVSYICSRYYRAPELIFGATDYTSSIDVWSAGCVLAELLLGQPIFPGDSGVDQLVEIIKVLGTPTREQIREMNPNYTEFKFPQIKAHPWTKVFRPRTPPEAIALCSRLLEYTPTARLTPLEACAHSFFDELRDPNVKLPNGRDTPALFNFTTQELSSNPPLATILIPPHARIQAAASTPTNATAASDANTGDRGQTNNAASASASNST

- Kd: 122 µM
Compound: O=C(c1cc(Br)ccc1O)c1cc(O)c(O)cc1Br [LM49, 5,2′-dibromo-2,4′,5′-trihydroxydiphenylmethanone]

Source: publication PMC9550195, “GSK3β-dependent lysosome biogenesis: An effective pathway to mitigate renal fibrosis with LM49” (Frontiers in Pharmacology, 2022)
